# pEC50: −log10 of the molar value.
# Molecular target: T1, ADAR1 (Homo sapiens, UniProt P55265)
# T1 construct: endogenous in cells; host or cells: p110 KO A549 dual cells
# T1 sequence (P55265 1-1226): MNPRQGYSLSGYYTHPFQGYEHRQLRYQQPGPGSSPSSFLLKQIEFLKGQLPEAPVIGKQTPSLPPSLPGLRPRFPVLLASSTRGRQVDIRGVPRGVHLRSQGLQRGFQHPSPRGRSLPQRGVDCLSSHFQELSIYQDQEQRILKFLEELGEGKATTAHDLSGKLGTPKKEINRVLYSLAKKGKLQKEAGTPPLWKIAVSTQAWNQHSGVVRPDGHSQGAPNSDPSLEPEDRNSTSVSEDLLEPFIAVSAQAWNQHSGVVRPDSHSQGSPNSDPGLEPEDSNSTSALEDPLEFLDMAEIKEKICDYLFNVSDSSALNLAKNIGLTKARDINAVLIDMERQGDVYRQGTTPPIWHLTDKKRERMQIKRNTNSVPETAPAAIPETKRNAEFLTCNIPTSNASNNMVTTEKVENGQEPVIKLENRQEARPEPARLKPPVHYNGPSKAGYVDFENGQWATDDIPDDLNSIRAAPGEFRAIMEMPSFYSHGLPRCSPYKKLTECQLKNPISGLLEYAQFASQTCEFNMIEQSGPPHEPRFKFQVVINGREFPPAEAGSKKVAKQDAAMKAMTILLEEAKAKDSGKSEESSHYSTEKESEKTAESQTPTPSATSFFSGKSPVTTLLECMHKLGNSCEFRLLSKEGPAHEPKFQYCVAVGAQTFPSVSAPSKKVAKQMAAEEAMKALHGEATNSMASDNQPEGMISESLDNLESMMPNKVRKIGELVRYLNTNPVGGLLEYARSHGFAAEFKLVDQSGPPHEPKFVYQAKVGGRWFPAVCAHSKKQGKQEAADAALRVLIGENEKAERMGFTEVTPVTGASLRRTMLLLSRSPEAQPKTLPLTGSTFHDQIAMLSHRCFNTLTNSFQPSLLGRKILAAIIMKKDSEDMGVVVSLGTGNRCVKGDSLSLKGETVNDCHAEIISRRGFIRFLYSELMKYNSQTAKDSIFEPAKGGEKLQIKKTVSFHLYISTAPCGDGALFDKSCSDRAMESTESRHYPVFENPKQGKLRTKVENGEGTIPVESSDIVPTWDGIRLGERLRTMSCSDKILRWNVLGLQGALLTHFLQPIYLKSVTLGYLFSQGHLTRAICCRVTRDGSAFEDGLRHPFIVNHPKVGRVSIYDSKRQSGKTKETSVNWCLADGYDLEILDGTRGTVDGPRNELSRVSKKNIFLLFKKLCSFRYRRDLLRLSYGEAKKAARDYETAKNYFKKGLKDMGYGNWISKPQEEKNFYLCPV
# Assay: ADAR1 Inhibition Assay (IFN fold-induction, Quanti-Luc luminescence, p110 KO A549 dual cells)
# Format: cell-based
# Details: IFN fold-induction vs DMSO, 24 and 48 h
# In short: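 EC50 derived from IFN fold-induction, calculated as sample RLU over average DMSO RLU. Luminescence measured by Quanti-Luc on samples taken after 24 and 48 h of compound exposure (1% DMSO final, 37 °C, 5% CO2). Cells were p110 KO A549 dual, seeded at 20,000 per well in supplemented DMEM.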
row,Compound,pEC50
1,CCOC(=O)c1cc(-c2ccccc2)ncc1NC(=O)C1CCN(C(=O)c2cccc(NS(C)(=O)=O)c2)C1 (stereo not drawn) [Compound 210],< 4.00
2,CCOC(=O)c1cc(-c2ccc(N(C)C)cc2)sc1NC(=O)COC(=O)c1cccc(NS(C)(=O)=O)c1 [Compound 213],< 4.00
3,CCOC(=O)c1c(-c2ccccc2)noc1NC(=O)COC(=O)c1cccc(NS(C)(=O)=O)c1 [Compound 214],< 4.00
4,CCOC(=O)c1cc(-c2ccccc2)sc1NC(=O)Cn1cnc2cnc(N)nc21 [Compound 215],< 4.00
5,CCOC(=O)c1cc(-c2ccc(O)cc2)sc1NC(=O)COC(=O)c1cccc(NS(C)(=O)=O)c1 [Compound 218],< 4.00
6,CS(=O)(=O)Nc1cccc(C(=O)OCC(=O)N2CCN(c3ccccc3)C2=S)c1 [Compound 221],< 4.00
7,CS(=O)(=O)Nc1cccc(C(=O)OCC(=O)Nc2sc(-c3ccccc3)cc2C(=O)OCCOCc2ccccc2)c1 [Compound 223],< 4.00
8,CCOC(=O)c1cc(-c2ccccc2)sc1NC(=O)Cn1cnc2cnc(NS(C)(=O)=O)nc21 [Compound 225],< 4.00
9,CCOC(=O)c1cc(-c2ccc(C(=O)O)cc2)sc1NC(=O)COC(=O)c1cccc(NS(C)(=O)=O)c1 [Compound 226],< 4.00
10,CCOC(=O)c1cc(-c2ccccc2)sc1NC(=O)C1CCN(S(=O)(=O)c2cccc(NS(C)(=O)=O)c2)C1 (stereo not drawn) [Compound 227],< 4.00
11,CCOC(=O)c1cc(C2CC2)sc1NC(=O)COC(=O)c1cccc(NS(C)(=O)=O)c1 [Compound 230],< 4.00
12,CCOC(=O)c1cc(-c2ccccc2)sc1N1C(=O)N(c2cccc(NS(C)(=O)=O)c2)C(C)(C)C1=O [Compound 233],< 4.00
13,CCOc1nc(NC(=O)COC(=O)c2cccc(NS(C)(=O)=O)c2)ncc1-c1ccccc1 [Compound 235],< 4.00
14,CCOC(=O)c1cccc2nc(NC(=O)COC(=O)c3cccc(NS(C)(=O)=O)c3)sc12 [Compound 236],< 4.00
15,CCOC(=O)c1cc(-c2ccccc2)sc1NC(=O)CCN(C(C)=O)c1cccc(N(C(C)=O)S(C)(=O)=O)c1 [Compound 237],< 4.00
16,CCOC(=O)c1c(NC(=O)COC(=O)c2cccc(NS(C)(=O)=O)c2)sc2ccccc12 [Compound 243],< 4.00
17,CCOC(=O)c1nc(-c2ccccc2)ccc1NC(=O)COC(=O)c1cccc(NS(C)(=O)=O)c1 [Compound 245],< 4.00
18,CCOC(=O)c1cc(NC(=O)COC(=O)c2cccc(NS(C)(=O)=O)c2)ncc1-c1ccccc1 [Compound 249],< 4.00
19,CCOC(=O)c1cc(-c2ccccc2)sc1NC(=O)COC(c1cccc(NS(C)(=O)=O)c1)C(F)(F)F (stereo not drawn) [Compound 250],< 4.00
20,CCOC(=O)c1c(NC(=O)COC(=O)c2cccc(NS(C)(=O)=O)c2)sc(-c2ccccc2)c1C(=O)OCC [Compound 251],< 4.00
21,CCOC(=O)c1cnc(NC(=O)COC(=O)c2cccc(NS(C)(=O)=O)c2)c(-c2ccccc2)c1 [Compound 254],< 4.00
22,COC(=O)c1nc(-c2ccccc2)cnc1NC(=O)COC(=O)c1cccc(NS(C)(=O)=O)c1 [Compound 258],< 4.00
23,CS(=O)(=O)Nc1cccc(C(=O)OCC(=O)Nc2ncc(-c3ccccc3)cc2CO)c1 [Compound 259],< 4.00
24,CCOC(=O)c1cc(-c2ccccc2)cnc1NC(=O)COC(=O)c1cccc(NS(C)(=O)=O)c1 [Compound 260],< 4.00
25,CCOC(=O)c1cc(-c2ccccc2)sc1NC(=O)c1cc(-c2cccc(NS(C)(=O)=O)c2)ncn1 [Compound 261],< 4.00
26,CCOC(=O)c1cc(NC(=O)c2ccccc2)sc1NC(=O)COC(=O)c1cccc(NS(C)(=O)=O)c1 [Compound 263],< 4.00
27,CS(=O)(=O)Nc1cccc(C(=O)OCC(=O)Nc2cc(-c3ccccc3)[nH]n2)c1 [Compound 265],< 4.00
28,CCOC(=O)c1cc(-c2ccc(C(=O)Nc3cccc(NS(C)(=O)=O)c3)cc2)sc1NC(C)=O [Compound 266],< 4.00
29,CCOC(=O)c1cc(-c2ccccc2)sc1NC(=O)Oc1ccc(NS(C)(=O)=O)cc1 [Compound 267],< 4.00

# Now from value to molecule:
row,pEC50,Compound
1,< 4.00,CCOC(=O)c1cc(-c2ccccc2)sc1NC(=O)COCc1cccc(NS(C)(=O)=O)c1 [Compound 207]
2,< 4.00,CCOC(=O)c1cc(-c2ccccc2)sc1NC(=O)COC1CCN(C(=O)c2cccc(NS(C)(=O)=O)c2)CC1 [Compound 208]
3,< 4.00,CS(=O)(=O)Nc1cccc(C(=O)OCC(=O)Nc2sc(-c3ccccc3)cc2C(=O)OCC(=O)O)c1 [Compound 209]
4,< 4.00,CCOC(=O)c1cc(-c2cccc(OC)c2)sc1NC(=O)COC(=O)c1cccc(NS(C)(=O)=O)c1 [Compound 211]
5,< 4.00,CCOC(=O)c1cc(-c2cccc(C#N)c2)sc1NC(=O)COC(=O)c1cccc(NS(C)(=O)=O)c1 [Compound 212]
6,< 4.00,CCOC(=O)c1cc(-c2ccccc2)sc1NC(=O)Cc1nc(-c2cccc(NS(C)(=O)=O)c2)no1 [Compound 216]
7,< 4.00,CON(C)C(=O)c1cc(-c2ccccc2)sc1NC(=O)COC(=O)c1cccc(NS(C)(=O)=O)c1 [Compound 217]
8,≥ 4.60,CCOC(=O)c1cc(-c2ccccc2)sc1NC(=O)c1nnc(-c2cccc(NS(C)(=O)=O)c2)o1 [Compound 219]
9,< 4.00,CCOC(=O)c1cc(-c2ccccc2)sc1NC(=O)c1nnc(-c2cccc(NS(C)(=O)=O)c2)s1 [Compound 222]
10,< 4.00,CCOC(=O)c1cc(-c2ccccc2)sc1NC(=O)C1CN(C(=O)c2cccc(NS(C)(=O)=O)c2)CCO1 (stereo not drawn) [Compound 224]
11,< 4.00,CCOC(=O)c1cc(-c2ccccc2)sc1NC(=O)CCOC(=O)c1cccc(NS(C)(=O)=O)c1 [Compound 229]
12,< 4.00,CCOC(=O)c1cc(-c2ccccc2)sc1NC(=O)C(C)(C)Nc1cccc(NS(C)(=O)=O)c1 [Compound 231]
13,< 4.00,CCOC(=O)c1cc(-c2ccccc2)sc1NC(=O)CNS(=O)(=O)c1cccc(NS(C)(=O)=O)c1 [Compound 232]
14,< 4.00,CCOC(=O)c1cc(-c2ccccc2)sc1NC(=O)CN1C(=O)c2ccc(NS(C)(=O)=O)cc2C1=O [Compound 234]
15,< 4.00,CCOC(=O)c1cc(-c2ccccc2)sc1NC(=O)CN1C(=O)CN(C(=O)c2cccc(NS(C)(=O)=O)c2)C1=O [Compound 238]
16,< 4.00,CCOC(=O)c1cc(-c2ccccc2)sc1NC(=O)CN1C(=O)CN(S(C)(=O)=O)C1=O [Compound 239]
17,< 4.00,CCOC(=O)c1cc(-c2ccccc2)sc1NC(=O)COC(C)c1cccc(NS(C)(=O)=O)c1 (stereo not drawn) [Compound 240]
18,< 4.00,CCOC(=O)c1cc(-c2ccccc2)sc1NC(=O)Cn1ncc2ccc(NS(C)(=O)=O)cc21 [Compound 242]
19,< 4.00,CCOC(=O)c1cc(-c2ccccc2)sc1NC(=O)c1coc(-c2cccc(NS(C)(=O)=O)c2)n1 [Compound 244]
20,< 4.00,CCOC(=O)c1cc(-c2ccccc2)sc1NC(=O)c1cnc(-c2cccc(NS(C)(=O)=O)c2)s1 [Compound 246]
21,< 4.00,CCOC(=O)c1cc(NC(=O)COC(=O)c2cccc(NS(C)(=O)=O)c2)sc1-c1ccccc1 [Compound 247]
22,< 4.00,CCOC(=O)c1cc(-c2ccccc2)sc1NC(=O)c1cnc(-c2cccc(NS(C)(=O)=O)c2)o1 [Compound 248]
23,< 4.00,CCOC(=O)c1cc(-c2ccccc2)sc1NC(=O)c1cccc(-c2cccc(NS(C)(=O)=O)c2)c1 [Compound 252]
24,< 4.00,CCOC(=O)c1cc(-c2ccccc2)sc1NC(=O)c1nc(-c2cccc(NS(C)(=O)=O)c2)no1 [Compound 255]
25,< 4.00,CCOC(=O)c1cc(-c2ccccc2)sc1NC(=O)COC(=O)c1cccc(C(=O)NS(C)(=O)=O)c1 [Compound 256]
26,< 4.00,CCOC(=O)c1cc(-c2ccccc2)sc1NC(=O)COC(=O)c1cccc(NS(=O)(=O)C(F)(F)F)c1 [Compound 257]
27,< 4.00,CCOC(=O)c1cc(-c2ccccc2)sc1NC(=O)NNC(=O)c1cccc(NS(C)(=O)=O)c1 [Compound 262]
28,< 4.00,CCOC(=O)c1cc(-c2ccccc2)sc1NC(=O)c1cncc(-c2cccc(NS(C)(=O)=O)c2)n1 [Compound 264]

# — US20260200890A1, “ADAR1 INHIBITORS AND METHODS OF USING THE SAME” (AVAMMUNE THERAPEUTICS INC., priority 2022, published 2026)
